Measurements reported in patent US8163756B2 (priority 2004, dated 2012).

Experiments:
Format in all cases: biochemical
Abl kinase [1] = molecular target: T1, Abl kinase (Homo sapiens, UniProt P00519); test: Abl kinase assay A2 (as A1, 1.1 nM enzyme, 2 h pre-incubation, 0.5 mM ATP); conditions: Method A2; read-out: Abl Data (IC50)
T1 sequence (P00519 229-512): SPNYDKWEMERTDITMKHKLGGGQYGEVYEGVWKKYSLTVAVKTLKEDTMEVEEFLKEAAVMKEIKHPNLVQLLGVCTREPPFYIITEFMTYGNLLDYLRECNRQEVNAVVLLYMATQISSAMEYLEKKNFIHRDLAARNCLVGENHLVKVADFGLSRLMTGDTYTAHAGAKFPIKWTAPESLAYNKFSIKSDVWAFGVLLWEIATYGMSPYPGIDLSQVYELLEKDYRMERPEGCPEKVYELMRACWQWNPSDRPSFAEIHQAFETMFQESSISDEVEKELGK
Procedure: (§1) IC50 values were calculated from a series of percent inhibition values determined at a range of inhibitor concentrations using software routines as implemented in the GraphPad Prism software package.

Abl kinase [2] = molecular target: T1, Abl kinase; test: Abl kinase assay A1 (pyruvate kinase/lactate dehydrogenase coupled, spectrophotometric); conditions: Method A1; read-out: Abl Data (IC50)
Procedure: as §1

KDR kinase = KDR kinase (Homo sapiens, UniProt P35968, DEL940-989/E990V); test: KDR kinase assay K2 (as K1, 2.1 nM enzyme, 2 h pre-incubation, 1.0 mM ATP); conditions: Method K2; read-out: KDR Data (IC50)
Procedure: as §1

B-Raf(V599E) kinase = B-Raf(V599E) kinase (Homo sapiens, UniProt P15056, V600E); test: B-Raf(V599E) kinase assay B1 (construct 1, MEK1 substrate, coupled spectrophotometric)
Procedure: The test compounds were incubated with the reaction mixtureat 30° C. for 2 h. […] The reaction rate was calculated using the […] time frame. […] IC50 values were calculated from a series of percent inhibition values determined at a range of inhibitor concentrations using software routines as implemented in the GraphPad Prism software package.

[3] = molecular target: phosphorylated p-38-alpha kinase (Homo sapiens, UniProt Q16539); test: P-38 alpha kinase assay P1 (coupled spectrophotometric, 2 h pre-incubation); conditions: method P1 (2 h pre-incubation); read-out: P-38 Data
Sequence of phosphorylated p-38-alpha kinase (Q16539 1-360 isoform Q16539-2): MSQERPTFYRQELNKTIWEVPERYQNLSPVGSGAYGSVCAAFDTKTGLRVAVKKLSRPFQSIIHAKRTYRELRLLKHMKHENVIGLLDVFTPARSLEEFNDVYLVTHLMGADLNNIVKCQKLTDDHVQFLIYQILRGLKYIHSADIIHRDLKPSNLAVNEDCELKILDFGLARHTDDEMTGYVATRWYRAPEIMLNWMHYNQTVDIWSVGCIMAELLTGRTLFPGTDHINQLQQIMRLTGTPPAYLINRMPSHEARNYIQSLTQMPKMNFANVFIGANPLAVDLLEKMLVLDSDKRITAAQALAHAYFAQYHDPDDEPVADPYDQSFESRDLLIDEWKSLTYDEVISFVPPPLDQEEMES

Sequence of KDR kinase (P35968 with tags, fused parts or gaps DEL940-989/E990V): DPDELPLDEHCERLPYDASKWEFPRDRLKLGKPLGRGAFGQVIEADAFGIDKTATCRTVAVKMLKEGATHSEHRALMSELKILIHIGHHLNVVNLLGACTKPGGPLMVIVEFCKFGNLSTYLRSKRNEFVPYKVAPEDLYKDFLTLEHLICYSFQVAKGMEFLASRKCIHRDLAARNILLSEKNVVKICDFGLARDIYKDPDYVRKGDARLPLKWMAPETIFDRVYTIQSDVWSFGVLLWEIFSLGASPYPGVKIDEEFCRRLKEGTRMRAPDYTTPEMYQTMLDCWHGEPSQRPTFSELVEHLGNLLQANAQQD
Sequence of B-Raf(V599E) kinase (P15056 with tags, fused parts or gaps V600E): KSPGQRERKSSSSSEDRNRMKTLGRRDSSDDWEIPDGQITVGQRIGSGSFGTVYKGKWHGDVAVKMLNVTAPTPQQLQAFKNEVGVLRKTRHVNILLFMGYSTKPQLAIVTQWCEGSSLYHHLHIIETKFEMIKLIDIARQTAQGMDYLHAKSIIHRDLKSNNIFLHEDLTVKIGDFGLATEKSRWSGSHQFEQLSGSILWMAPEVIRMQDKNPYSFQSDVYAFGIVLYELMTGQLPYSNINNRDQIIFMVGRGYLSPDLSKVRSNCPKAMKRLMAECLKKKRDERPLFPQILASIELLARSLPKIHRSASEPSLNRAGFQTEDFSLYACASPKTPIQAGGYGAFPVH

Compound	IC50 (Abl kinase [1])	IC50 (Abl kinase [2])	IC50 (KDR kinase)	IC50 (B-Raf(V599E) kinase)	IC50 [3]
O=C1CCc2cc(-n3nc(C4CCCC4)cc3NC(=O)Nc3cccc(Oc4cccnc4)c3)ccc2N1 [Example 133, 1-(3-cyclopentyl-1-(2-oxo-1,2,3,4-tetrahydroquinolin-6-yl)-1H-pyrazol-5-yl)-3-(3-(pyridin-3-yloxy)phenyl)urea]	48 nM				
CC(C)(C)c1cc(NC(=O)Nc2cccc(Cl)c2Cl)n(-c2ccc3c(c2)CC(C(N)=O)NC3)n1 (stereo not drawn) [Example 188, 1-(3-t-butyl-1-(3-carbamoyl-1,2,3,4-tetrahydroisoquinolin-6-yl)-1H-pyrazol-5-yl)-3-(2,3-dichloro-phenyl)urea]		110 nM	150 nM	5.8 nM	17 nM
CC(C)(C)c1cc(NC(=O)Nc2cccc3ccccc23)n(-c2ccc3c(c2)CCC(=O)N3)n1 [Example 198, 1-(3-t-butyl-1-(2-oxo-1,2,3,4-tetrahydroquinolin-6-yl)-1H-pyrazol-5-yl)-3-(naphthalen-1-yl)urea]			1300 nM		59 nM
CC(C)(C)c1cc(NC(=O)Nc2ccc(F)c(F)c2F)n(-c2cccc(C#N)c2)n1 [Example 210, 1-(3-t-butyl-1-(3-cyanophenyl)-1H-pyrazol-5-yl)-3-(2,3,4-trifluorophenyl)urea]			110 nM		24 nM
CC(C)(C)c1cc(NC(=O)Nc2cc(F)ccc2F)n(-c2cccc(C#N)c2)n1 [Example 213, 1-(3-t-butyl-1-(3-cyanophenyl)-1H-pyrazol-5-yl)-3-(2,5-difluorophenyl)urea]			210 nM	12 nM	67 nM
COc1cccc(-n2nc(C(C)(C)C)cc2NC(=O)Nc2ccc(Cl)cc2Cl)c1 [Example 233, 1-(3-t-butyl-1-(3-methoxyphenyl)-1H-pyrazol-5-yl)-3-(2,4-dichlorophenyl)urea]			410 nM	28 nM	50 nM
COc1ccc(-n2nc(C(C)(C)C)cc2NC(=O)Nc2ccccc2F)cc1 [Example 237, 1-[3-t-butyl-1-(4-methoxyphenyl)-1H-pyrazol-5-yl]-3-(2-fluorophenyl)urea]			4900 nM	59 nM	580 nM
COc1ccc(-n2nc(C(C)(C)C)cc2NC(=O)Nc2cccc(Cl)c2)cc1 [Example 240, 1-[3-t-butyl-1-(4-methoxyphenyl)-1H-pyrazol-5-yl]-3-(3-chlorophenyl)urea]			3700 nM	50 nM	470 nM
CC(C(N)=O)c1cccc(-n2nc(C(C)(C)C)cc2NC(=O)Nc2cccc(Cl)c2Cl)c1 (stereo not drawn) [Example 249, 1-(1-(3-(1-amino-1oxopropan-2-yl)phenyl)-3-t-butyl-1H-pyrazol-5-yl)-3-(2,3-dichlorophenyl)urea]			590 nM	4.5 nM	11 nM
CC(C)(C)c1cc(NC(=O)Nc2cccc3ccccc23)n(-c2cccc(CCO)c2)n1 [Example 341, 1-{3-t-butyl-1-[3-(2-hydroxyethyl)phenyl]-1H-pyrazol-5-yl}-3-(naphthalen-1-yl)urea]			5500 nM		27 nM
CC(C)(C)c1cc(NC(=O)Nc2cccc(Cl)c2Cl)n(-c2cccc(CC(=O)N3CCC(C(=O)O)CC3)c2)n1 [Example 345, 1-[2-(3-{3-t-butyl-5-[3-(2,3-dichlorophenyl)ureido]-1H-pyrazol-1-yl}phenyl)acetyl]piperidine-4-carboxylic acid]			2900 nM		19 nM
CC(C)(C)c1cc(NC(=O)Nc2cccc3ccccc23)n(-c2ccc3c(c2)CNCC3)n1 [Example 349]			4100 nM		30 nM
CC(C)(C)c1cc(NC(=O)Nc2cccc(Cl)c2Cl)n(-c2cccc(CC(=O)N3CCCC(C(=O)O)C3)c2)n1 (stereo not drawn) [Example 398, 1-[2-(3-{3-t-butyl-5-[3-(2,3-dichlorophenyl)-ureido]-1H-pyrazol-1-yl}-phenyl)acetyl]piperidine-3-carboxylic acid]			2700 nM	12 nM	26 nM
CC(C)(C)c1cc(NC(=O)Nc2cccc(Cl)c2Cl)n(-c2cccc(CC(=O)N3CCC[C@@H]3C(=O)O)c2)n1 [Example 400, (2R)-1-[2-(3-{3-t-butyl-5-[3-(2,3-dichlorophenyl)ureido]-1H-pyrazol-1-yl}phenyl)acetyl]pyrrolidine-2-carboxylic acid]			3700 nM	19 nM	46 nM
CC(C)(C)c1cc(NC(=O)Nc2cccc(Cl)c2Cl)n(-c2ccc(CC(=O)N3CCC(C(=O)O)CC3)cc2)n1 [Example 498, 1-[2-(4-{3-t-butyl-5-[3-(2,3-dichlorophenyl)ureido]-1H-pyrazol-1-yl}-phenyl)acetyl]piperidine-4-carboxylic acid]			1700 nM	52 nM	9 nM
